Source: DBAASP
Converted amounts (≈) assume the structure as drawn. Blank lines part the entries; values can stand above or below the molecule they belong to.

Legend:
Assay in all cases: ≥ marks a high value that may be exact or a test limit, other limits are often not marked, values filed in µg/mL are converted to µM
Botrytis cinerea = system: Botrytis cinerea
[1] = system: Candida albicans ATCC 10231
[2] = system: Escherichia coli ATCC 11775
[3] = system: Staphylococcus aureus ATCC 12600
Bacillus subtilis 168 = system: Bacillus subtilis 168
[4] = system: Candida albicans F7-39/IDE99
Escherichia coli B = system: Escherichia coli B
Pseudomonas aeruginosa = system: Pseudomonas aeruginosa
Staphylococcus aureus = system: Staphylococcus aureus
Bacillus subtilis = system: Bacillus subtilis
[5] = system: Staphylococcus aureus USA 100
[6] = system: Pseudomonas aeruginosa Ps4
[7] = system: Bacillus subtilis KCTC 3068
[8] = system: Escherichia coli KCTC 1682
[9] = system: Pseudomonas aeruginosa KCTC 1637
[10] = system: Salmonella typhimurium KCTC 1926
[11] = system: Staphylococcus aureus CCARM 3089
[12] = system: Staphylococcus aureus KCTC 1621
[13] = system: Staphylococcus epidermidis KCTC 1917
[14] = system: Escherichia coli ATCC 25922
[15] = system: Escherichia coli ATCC 8739
Escherichia coli = system: Escherichia coli
Klebsiella pneumoniae = system: Klebsiella pneumoniae
[16] = system: Staphylococcus aureus ATCC 25923
Proteus vulgaris = system: Proteus vulgaris
Salmonella typhimurium = system: Salmonella typhimurium
[17] = system: Staphylococcus epidermidis
Streptococcus pyogenes = system: Streptococcus pyogenes
[18] = system: Pectobacterium carotovorum
Enterococcus faecium = system: Enterococcus faecium
[19] = system: Candida albicans ATCC 90028
[20] = system: Pseudomonas aeruginosa ATCC 9027
[21] = system: Staphylococcus aureus USA 300

Compound: CC(C)C[C@H](NC(=O)[C@H](C)NC(=O)[C@H](CO)NC(=O)[C@H](C)NC(=O)[C@@H](NC(=O)[C@H](CCCCN)NC(=O)[C@H](CCCCN)NC(=O)[C@@H](NC(=O)[C@H](CC(C)C)NC(=O)CNC(=O)[C@H](CC(C)C)NC(=O)[C@H](CC(C)C)NC(=O)[C@H](CC(=O)O)NC(=O)[C@@H](N)Cc1ccccc1)C(C)C)C(C)C)C(N)=O [FDLLGLVKKVASAL]
MIC (Botrytis cinerea): 5 µM (≈ 7.36 µg/mL)
MIC [1]: 100 µM (≈ 147 µg/mL)
MIC [2]: ≥ 100 µM
MIC [3]: ≥ 50 µM

Compound: CC[C@H](C)[C@H](NC(=O)[C@H](Cc1cnc[nH]1)NC(=O)[C@H](CCCCN)NC(=O)[C@H](CC(C)C)NC(=O)[C@H](CC(C)C)NC(=O)[C@H](CCCCN)NC(=O)[C@H](CCSC)NC(=O)[C@H](Cc1c[nH]c2ccccc12)NC(=O)[C@H](CCCCN)NC(=O)CN)C(=O)N[C@@H](CC(C)C)C(=O)N[C@@H](CCCCN)C(N)=O [GKWMKLLKHILK]
MIC (Bacillus subtilis 168): 0.8 µM (≈ 1.2 µg/mL)
MIC [4]: 4.5 µM (≈ 6.72 µg/mL)
MIC (Escherichia coli B): 2.5 µM (≈ 3.73 µg/mL)
MIC (Pseudomonas aeruginosa): 10.7 µM (≈ 16 µg/mL)
MIC (Staphylococcus aureus): 4.5 µM (≈ 6.72 µg/mL)

Compound: CC[C@H](C)[C@H](NC(=O)[C@H](C)NC(=O)[C@H](C)NC(=O)[C@H](CC(C)C)NC(=O)[C@@H](NC(=O)[C@H](CCCCN)NC(=O)[C@H](CCCN=C(N)N)NC(=O)[C@@H]1CCCN1C(=O)[C@H](CC(C)C)NC(=O)CN)[C@@H](C)CC)C(=O)N[C@@H](C)C(=O)N[C@@H](CCCCN)C(=O)N[C@@H](CCCCN)C(=O)N[C@@H](CCCCN)C(N)=O [GLPRKILAAIAKKK]
MIC (Bacillus subtilis): ≥ 35 µM
MIC [4]: ≥ 100 µM
MIC (Escherichia coli B): ≥ 100 µM
MIC (Pseudomonas aeruginosa): > 100 µM
MIC (Staphylococcus aureus): > 100 µM

Compound: CC[C@H](C)[C@H](N)C(=O)N[C@@H](CC(C)C)C(=O)N1CCC[C@H]1C(=O)N[C@H](C(=O)N[C@@H](CC(C)C)C(=O)N[C@@H](C)C(=O)N1CCC[C@H]1C(=O)N[C@@H](CC(C)C)C(=O)N[C@H](C(=O)NCC(=O)NCC(=O)N[C@@H](CC(C)C)C(=O)N[C@@H](CC(C)C)C(N)=O)[C@@H](C)CC)[C@@H](C)CC [ILPILAPLIGGLL]
MIC [2]: ≥ 100 µM
MIC [3]: ≥ 100 µM

Compound: CC[C@H](C)[C@H](N)C(=O)N[C@@H](CCCN=C(N)N)C(=O)N[C@H](C(=O)N[C@@H](CCCN=C(N)N)C(N)=O)[C@@H](C)CC [IRIR]
MIC [5]: ≥ 100 µM

Compound: CC[C@H](C)[C@H](N)C(=O)N[C@@H](Cc1c[nH]c2ccccc12)C(=O)N[C@@H](CCC(N)=O)C(=O)N[C@@H](CCCN=C(N)N)C(=O)N[C@@H](CC(N)=O)C(=O)N[C@H](C(=O)N[C@@H](CCCN=C(N)N)C(=O)N[C@H](C(=O)N[C@@H](CCCN=C(N)N)C(=O)N[C@@H](CCCN=C(N)N)C(N)=O)[C@@H](C)CC)[C@@H](C)CC [IWQRNIRIRR]
MIC [6]: ≥ 177 µM

Compound: CC[C@H](C)[C@H](NC(=O)[C@H](C)NC(=O)[C@H](CO)NC(=O)[C@@H](NC(=O)[C@@H](NC(=O)[C@@H](NC(=O)[C@H](Cc1cnc[nH]1)NC(=O)[C@H](CC(C)C)NC(=O)[C@H](CC(=O)O)NC(=O)[C@@H](N)CCCCN)[C@@H](C)O)C(C)C)C(C)C)C(=O)N[C@@H](CC(C)C)C(=O)N[C@@H](CCC(N)=O)C(=O)N[C@@H](C)C(=O)N[C@@H](CC(C)C)C(N)=O [KDLHTVVSAILQAL]
MIC (Botrytis cinerea): 5.31 µM (≈ 7.99 µg/mL)
MIC [1]: 33.2 µM (≈ 50 µg/mL)
MIC [2]: ≥ 66.3 µM
MIC [3]: ≥ 66.3 µM

Compound: CC[C@H](C)[C@H](NC(=O)[C@H](CCCN=C(N)N)NC(=O)[C@H](CCCCN)NC(=O)[C@@H](NC(=O)[C@@H](NC(=O)[C@H](CCCN=C(N)N)NC(=O)[C@@H](N)CCCCN)[C@@H](C)CC)C(C)C)C(=O)N[C@@H](CCCCN)C(=O)N[C@@H](CCCCN)C(=O)N[C@@H](Cc1c[nH]c2ccccc12)C(=O)N[C@@H](CC(C)C)C(=O)N[C@@H](CCCN=C(N)N)C(N)=O [KRIVKRIKKWLR]
MIC [7]: 2 µM (≈ 3.25 µg/mL)
MIC [8]: 2 µM (≈ 3.25 µg/mL)
MIC [9]: 8 µM (≈ 13 µg/mL)
MIC [10]: 2 µM (≈ 3.25 µg/mL)
MIC [11]: 4 µM (≈ 6.49 µg/mL)
MIC [12]: 2 µM (≈ 3.25 µg/mL)
MIC [13]: 1 µM (≈ 1.62 µg/mL)

The next lines start with the values.

MIC [14]: 11.7 µM (≈ 25 µg/mL)
MIC [15]: 7.5 µM (≈ 16 µg/mL)
MIC (Escherichia coli): 30 µM (≈ 64 µg/mL)
MIC (Klebsiella pneumoniae): 60.9 µM (≈ 130 µg/mL)
MIC [16]: > 120 µM
Compound: CC[C@H](C)[C@H](NC(=O)[C@H](CCCN=C(N)N)NC(=O)[C@H](C)NC(=O)[C@H](C)NC(=O)[C@H](CC(C)C)NC(=O)[C@H](CCCCN)NC(=O)[C@H](CCCCN)NC(=O)[C@H](CCCCN)NC(=O)[C@H](CCSC)NC(=O)[C@@H]1CCCN1)C(=O)N[C@@H](CC(C)C)C(=O)N[C@@H](C)C(=O)N[C@@H](CCCCN)C(=O)N[C@H](C(=O)N[C@H](C(=O)N[C@@H](C)C(=O)N1CCC[C@H]1C(=O)N[C@H](C(=O)N[C@@H](Cc1c[nH]c2ccccc12)C(=O)O)C(C)C)C(C)C)[C@@H](C)CC [PMKKKLAARILAKIVAPVW]

MIC (Bacillus subtilis): ≥ 64 µM
MIC (Escherichia coli): 64 µM (≈ 76.4 µg/mL)
MIC (Proteus vulgaris): ≥ 64 µM
MIC (Pseudomonas aeruginosa): 64 µM (≈ 76.4 µg/mL)
MIC (Salmonella typhimurium): 16 µM (≈ 19.1 µg/mL)
MIC [17]: ≥ 64 µM
MIC (Streptococcus pyogenes): ≥ 64 µM
Compound: CC(C)C[C@H](NC(=O)[C@H](CCCN=C(N)N)NC(=O)[C@@H]1CCCN1C(=O)[C@H](Cc1cnc[nH]1)NC(=O)[C@@H]1CCCN1C(=O)[C@@H]1CCCN1C(=O)[C@H](CCCN=C(N)N)NC(=O)[C@@H]1CCCN1C(=O)[C@H](CCC(N)=O)NC(=O)[C@@H]1CCCN1)C(=O)O [PQPRPPHPRL]

MIC [18]: 1.34 µM
Compound: CC(C)C[C@H](NC(=O)[C@H](Cc1ccccc1)NC(=O)CNC(=O)[C@H](C)NC(=O)[C@H](Cc1ccccc1)NC(=O)[C@@H](NC(=O)[C@H](CCCN=C(N)N)NC(=O)[C@H](CC(=O)O)NC(=O)[C@H](CCCCN)NC(=O)[C@H](CCC(=O)O)NC(=O)[C@@H](N)CCC(N)=O)[C@@H](C)O)C(=O)N[C@@H](CC(C)C)C(=O)N[C@@H](CCCCN)C(=O)NCC(=O)N[C@@H](Cc1ccccc1)C(=O)NCC(=O)N[C@H](C(=O)N[C@@H](CO)C(=O)N[C@@H](C)C(=O)N[C@@H](CO)C(=O)O)[C@@H](C)O [QEKDRTFAGFLLKGFGTSAS]

MIC [7]: 2.37 µM (≈ 4 µg/mL)
MIC (Enterococcus faecium): 2.37 µM (≈ 4 µg/mL)
MIC [8]: 9.47 µM (≈ 16 µg/mL)
MIC [9]: 9.47 µM (≈ 16 µg/mL)
MIC [10]: 4.73 µM (≈ 8 µg/mL)
MIC [12]: 2.37 µM (≈ 4 µg/mL)
MIC (Staphylococcus aureus): 3.35 µM (≈ 5.66 µg/mL)
MIC [13]: 1.18 µM (≈ 2 µg/mL)
Compound: NC(N)=NCCC[C@H](NC(=O)[C@H](CCCN=C(N)N)NC(=O)[C@H](Cc1ccccc1)NC(=O)[C@@H]1CCCN1C(=O)[C@H](Cc1c[nH]c2ccccc12)NC(=O)[C@H](Cc1c[nH]c2ccccc12)NC(=O)[C@H](Cc1c[nH]c2ccccc12)NC(=O)[C@@H]1CCCN1C(=O)[C@H](Cc1ccccc1)NC(=O)[C@H](CCCN=C(N)N)NC(=O)[C@@H](N)CCCN=C(N)N)C(=O)O [RRFPWWWPFRR]

MIC [6]: ≥ 153 µM
Compound: CC[C@H](C)[C@H](NC(=O)[C@H](CC(N)=O)NC(=O)[C@H](CCCN=C(N)N)NC(=O)[C@H](CCC(N)=O)NC(=O)[C@H](Cc1c[nH]c2ccccc12)NC(=O)[C@@H](N)CCCN=C(N)N)C(=O)N[C@@H](CCCN=C(N)N)C(=O)N[C@@H](CCCCN)C(=O)N[C@@H](Cc1ccc(O)cc1)C(=O)N[C@@H](CCCN=C(N)N)C(=O)N[C@@H](CCCN=C(N)N)C(N)=O [RWQRNIRKYRR]

MIC [19]: ≥ 100 µM
MIC [20]: > 100 µM
MIC [5]: ≥ 100 µM
MIC [21]: ≥ 100 µM
Compound: NC(=O)C[C@H](NC(=O)[C@H](Cc1ccccc1)NC(=O)[C@@H](N)Cc1c[nH]c2ccccc12)C(=O)O [WFN]
